# Reference: US7598279B2, “Neurotherapeutic azole compounds” (SK Holdings Co., Ltd., priority 2005, dated 2009)
# How the values were obtained:
# [1] = test system: mice; experiment: Pentylenetetrazol (PTZ)-induced clonic seizure test; type: in vivo; settings: for ED50 / responders at 30 mg/kg: Mus musculus; for ED50: sc, read-out: Mice PTZ ED50 (mpk/peak time); for responders at 30 mg/kg: read-out: Mice PTZ Protection % (mpk/peak time)
# Procedure: The “Pentylenetetrazol (PTZ)” test for anticonvulsant and antianxiety activity was also carried out.
# The procedure employed in the PTZ test is as follows. The compounds to be tested were dissolved in 30% PEG400 and administered ip and po into animals. After the designated number of hours, each animal was injected subcutaneously with 100 mg/kg of PTZ (CD97 dose) and observed for up to 30 minutes for the presence or absence of clonic spasms over 5 seconds. Median efficacy dose (ED50) levels were determined using three different dose levels with 8 mice in each group.
# [2] = biological target: TBPS site of GABA-A receptor; experiment: GABA-A receptor (TBPS site) binding assay, [35S]TBPS; settings: rat brain membranes, 2 nM [35S]TBPS
# Procedure: Compounds of the inventions were tested for specific binding to TBPS (t-butyl bicyclophosphorothionate) site, an allosteric modulator site of GABA-A receptor as modified from G. Maksay and M. Simonyi, Eur. J. Pharmacol. 1985, 117(2), 275. and Gee, K. W. et al., J. Pharm. Exp. Ther. 1988, 246, 803.
# This binding assay was performed using [35S] TBPS as radioligand in washed crude membrane homogenate from rat brains. Membrane preparations were carried out according to procedure described below. Sprague-Dawley (SD) rat weighting 230 g were killed by decapitation and their whole brains were rapidly removed and its cerebellums were excluded. The dissected brains were homogenized for 30 sec in 10 volumes (W/V) of ice-cold 0.32 M Sucrose and 50 mM Tris-citrate buffer pH 7.4 using glass homogenate. The homogenate was centrifuged at 2,000×g for 5 min at 4° C. And the supernatant re-centrifuged at 50,000×g for 20 min at 4° C. The supernatant was discarded and the resulting pellets were resuspended in 10 volumes (W/V) of ice-cold 50 mM Tris-citrate buffer pH 7.4. And then the suspended pellet was centrifuged at 50,000×g for 20 min at 4° C. The resulting pellets were suspended again in 32 volumes (W/V) of ice-cold 50 mM Tris-citrate buffer pH 7.4 with 0.05% Triton X-100 and then incubated in 37° C. for 60 min using a water bath. The incubated suspension was centrifuged at 50,000×g for 20 min at 4° C. Resuspending and centrifugation step of the remained pellets were repeated twice at the same manner and final pellets were resuspended in 10 volumes (W/V) of ice-cold 50 mM Tris-citrate buffer pH 7.4 to enable distribution of 2 ml aliquot in microcentrifuge tube, which were used immediately or kept at −80° C. for no more than 1 month before use.
# For TBPS site binding assay, 50 μl of the tested compound were added to 100 μg membrane protein suspended in 0.15 ml of 50 mM Tris-citrate buffer with 200 mM NaCl pH 7.4 in presence of 2 nM of [35S] TBPS. The incubation of mixtures were carried out for 1.5 hours at 25° C. and then rapidly filtered over Whatman GF/C glass fiber filters, followed by twice 4.5 ml rinses with ice-cold incubation buffer. The filters were placed in counting vials and 4 ml scintillation solution. The vials were counted in a Beckman scintillation counter. Non-specific binding was determined in parallel incubations with 100 μM picrotoxin.
# IC50 values for TBPS site binding assay was calculated using Graphpad PRISM v.3.00.
# [3] = test system: mice; experiment: Forced swimming test (FST); type: in vivo; settings: 30 min after dosing
# Procedure: The “Forced swimming test (FST)” for antidepressant activity was also carried out. The procedure employed in the FST for antidepressant is as follows. The compounds to be tested were dissolved in 30% PEG400 and administered ip and po into animals. 30 min later, the immobility time during post 4 minutes of 6 minutes experiment time was measured.
# [4] = test system: mice; experiment: Maximal ElectroShock (MES)-induced tonic seizure test; type: in vivo; settings: for ED50 / responders at 30 mg/kg: Mus musculus; for ED50: read-out: Mice MES ED50 (mpk/peak time); for responders at 30 mg/kg: read-out: Mice MES Protection % (mpk/peak time)
# Procedure: The “Maximal ElectroShock (MES)” test is a well-established pharmacological screening method for anticonvulsants against tonic-clonic seizures. The procedure employed in the MES test for anticonvulsants is as follows. The compounds to be tested were dissolved in 30% PEG400 and administered ip and po into animals. After the designated number of hours, maximal electroshock (50 mA, 60 Hz, 0.2 sec) was applied into animals via corneal electrodes using IITC Life Science model 11A Shocker. […] Median efficacy dose (ED50) levels were determined using three different dose levels with at least 8 mice in each group.
# [5] = test system: mice; experiment: Light-Dark Box (LDB) test; type: in vivo
# Procedure: Light-Dark Box (LDB) test, one of the unconditioned conflict tests, was used to investigate anxiolytic activity for several drugs such as Diazepam, Buspirone, etc (Allikmets et al, 1996; Belzung and Griebel, 2001; Cutler and Aitken, 1991; Leyre et al, 2004). In the present study, anxiolytic effect of azole compounds containing carbamoyl group represented by general structural formula (IX) was investigated on the LDB test in mice.
# The animals were treated with compound 30 min prior to testing. The light-dark box consisted of a plexiglas apparatus measuring 45 cm×27 cm×27 cm (L×W×H), and was partitioned into two compartments, one fully opaque (dark compartment made of black plexiglas: 18 cm of total length of apparatus), while the second was lit from the compartment ceiling by a 100 W bulb. A small opening (7×7 cm) in the partition wall allowed free passage between the light and dark compartments.
# Animals were placed at the lit compartment first, and the latency for escape into dark was checked and tested in the LDB for 5 min after the first entering into dark box. The animal, which the latency was over 2 min, was excluded from the test. Total time spent in the light compartment was counted. Movement of animal was checked through the TV-CCD camera by an experienced observer blind to the conditions of the experiment. A mouse whose four paws were in the new box was considered as having changed box.
# [6] = treated 30 min prior to testing, dose not given
Structure (SMILES),ED50 ([1]; 1 h),Mice FST Reduction of immobility % [3],"Mice LDB % Duration in the light box [5, 6]",TBPS Inhibition % (At 100 μM) [2],Mice FST Reduction of immobility % ([3]; dose not given),ED50 ([4]; 0.5 h),also measured
"NC(=O)O[C@@H](Cn1ncnn1)c1ccc(Cl)cc1Cl [Example 103, Carbamic acid (R)-1-(2,4-dichloro-phenyl)-2-tetrazol-2-yl-ethyl ester]",5.14 mg/kg,N.S,277.8% ^,,,,IC50 [2]: 13.4 µM; ED50 ([4]; 1 h): 19.2 mg/kg
"O=C(OC(Cn1ncnn1)c1ccccc1Cl)N1CCC(Cc2ccccc2)CC1 (stereo not shown) [Example 138, 4-Benzyl-piperidine-1-carboxylic acid 1-(2-chloro-phenyl)-2-tetrazol-2-yl-ethyl ester]",,,,49.6%,35.9%,,responders at 30 mg/kg ([1]; 4 h): 66.7%; responders at 30 mg/kg ([4]; 2 h): 100%
"NC(=O)O[C@@H](Cn1nccn1)c1ccc(Cl)cc1Cl [Example 115, Carbamic acid (R)-1-(2,4-dichloro-phenyl)-2-[1,2,3]triazol-2-yl-ethyl ester]",8.43 mg/kg,N.S,,,,,"IC50 [2]: 4.3 µM; ED50 ([4]; 0.25 h): 12.7 mg/kg; Mice LDB % Duration in the light box ([5]; 10 mpk, ip): 245%^"
"NC(=O)OC(Cn1ncnn1)c1cc(Cl)ccc1Cl (stereo not shown) [Example 89, Carbamic acid 1-(2,5-dichloro-phenyl)-2-tetrazol-2-yl-ethyl ester]",14.5 mg/kg,N.S,167.4% ^,27.6%,,,ED50 ([4]; 1 h): 6.15 mg/kg
"NC(=O)O[C@H](Cn1nccn1)c1ccc(Cl)cc1Cl [Example 114, Carbamic acid (S)-1-(2,4-dichloro-phenyl)-2-[1,2,3]triazol-2-yl-ethyl ester]",16.9 mg/kg,N.S,172.5% ^,,,,IC50 [2]: 107 µM; ED50 ([4]; 1 h): 33.9 mg/kg
"NC(=O)OC(Cn1ncnn1)c1c(Cl)cccc1Cl (stereo not shown) [Example 98, Carbamic acid 1-(2,6-dichloro-phenyl)-2-tetrazol-2-yl-ethyl ester]",,,,29.9%,31.5%,6.03 mg/kg,ED50 ([1]; 0.5 h): 11.6 mg/kg
"NC(=O)OC(Cn1ncnn1)c1ccccc1Cl (stereo not shown) [Example 2, Carbamic acid 1-(2-chloro-phenyl)-2-tetrazol-2-yl-ethyl ester]",,N.S,180%^,,,8.6 mg/kg,ED50 ([1]; 0.5 h): 5.9 mg/kg
"NC(=O)OC(Cn1nccn1)c1c(Cl)cccc1Cl (stereo not shown) [Example 99, Carbamic acid 1-(2,6-dichloro-phenyl)-2-[1,2,3]triazol-2-yl-ethyl ester]",,N.S,,23.6%,,11.6 mg/kg,responders at 30 mg/kg ([1]; 2 h): 100%
"NC(=O)OC(COc1ccc(Cl)c(Cl)c1)Cn1ncnn1 (stereo not shown) [Example 148, Carbamic acid 2-(3,4-dichloro-phenoxy)-1-tetrazol-2-ylmethyl-ethyl ester]",,N.S,,76.1%,,,responders at 30 mg/kg ([1]; 4 h): 66.7%; responders at 30 mg/kg ([4]; 0.5 h): 100%
"NC(=O)NC(=O)OC(Cn1ncnn1)c1ccccc1Cl (stereo not shown) [Example 129, O-1-(2-Chloro-phenyl)-2-tetrazol-2-yl ethyl allophanate]",,N.S,,5.6%,,,"Mice PTZ Protection % (mpk/peak time) ([1]; 3 mice, 30 mpk, 1 hr): 100% (30/1 hr); Mice MES ED50 (mpk/peak time) ([4]; mice, peak time 0.5 hr): 13.7/0.5 hr mpk"
"CC(C(OC(N)=O)c1ccc(Cl)c(Cl)c1)n1ncnn1 (stereo not shown) [Example 80, Carbamic acid 1-(3,4-dichloro-phenyl)-2-tetrazol-2-yl-propyl ester]",,,,64.8%,50.6%,,responders at 30 mg/kg ([4]; 4 h): 33.3%
"NC(=O)O[C@@H](Cn1nccn1)c1ccccc1Cl [Example 33, Carbamic acid (R)-1-(2-chloro-phenyl)-2-[1,2,3]triazol-2-yl-ethyl ester]",,,,,26.2%,9.72 mg/kg,ED50 ([1]; 0.5 h): 8.18 mg/kg; Mice LDB % Duration in the light box ([5]; treated 30 min prior to testing): N.S
"NC(=O)O[C@H](Cn1ncnn1)c1ccc(Cl)cc1Cl [Example 113, Carbamic acid (S)-1-(2,4-dichloro-phenyl)-2-tetrazol-2-yl-ethyl ester]",20.7 mg/kg,N.S,−172% ^,,,,ED50 ([4]; 1 h): 13 mg/kg
"NC(=O)O[C@@H](Cn1ncnn1)c1ccc(Cl)c(Cl)c1 [Example 88, Carbamic acid (R)-1-(3,4-dichloro-phenyl)-2-tetrazol-2-yl-ethyl ester]",,,,52.8%,88.4%,19.1 mg/kg,
"NC(=O)O[C@@H](Cn1nccn1)c1ccc(Cl)cc1 [Example 86, Carbamic acid (R)-1-(4-chloro-phenyl)-2-[1,2,3]triazol-2-yl-ethyl ester]",,N.S,,18.9%,,21.4 mg/kg,
